Data taken from patent publication US7582282B2, “Methods for optimizing clinical responsiveness to methotrexate therapy using metabolite profiling and pharmacogenetics” (Prometheus Laboratories Inc., priority 2003, dated 2009).
Values belong to the compound of their own block, whether it stands above or below them.

Assays:
[1] = human, in vivo
Method: Red blood cell methotrexate polyglutamate concentrations were measured as described further below using HPLC-fluorometry with post-column photo-oxidation technique. The technologist in charge of quantification of red blood cell methotrexate polyglutamates was blinded to patients' clinical information.
Mobile phase B consisted of acetonitrile.
Red blood cell long-chain MTXPG concentrations were measured as described previously using an HPLC-fluorometry procedure with post-column photo-oxidation technique (Dervieux, Clin Chem. (2003)). The technologist performing the quantification of RBC MTXPGs (up to the penta-order of glutamation) was blinded to patient's information.
The quantification limit of the analytical method is 5 nmol/L and the detection limit is 2 nmol/L packed RBC (for all MTXPG species) (Dervieux, Clin Chem. (2003)).

[2] = tested on: patients with rheumatoid arthritis; assay: Cross-sectional clinical study of methotrexate effects in patients with rheumatoid arthritis (joint counts, VAS, mHAQ; regression analyses); format: in vivo, human; parameters: key to Physician's assessment of disease activity visual analog score (VAS), mean / Physician assessment of disease activity VAS: 10 cm visual analog scale; key to Modified health assessment questionnaire (mHAQ) score, mean / Modified Health assessment questionnaire: mean of 8 items, each 0 = without any difficulty to 3 = unable to do
Method: In this cross-sectional study, eligibility was limited to patients of at least 18 years of age who met the revised criteria of the American Rheumatism Association for Rheumatoid Arthritis and had received low dose methotrexate therapy for at least three months. Some patients were on additional medications for rheumatoid arthritis, including low dose corticosteroids (<10 mg day), and folic acid supplementation (1 mg/day). The Institutional Review Board approved the study, and patient consent was obtained.
Patient characteristics were collected at the time of the enrollment in the clinical study. Clinical assessment included a tender joint count, a swollen joint count, a Physician's Assessment of Disease Activity (using a 10 cm visual analog scale (VAS)), and a Patient's Assessment of Physical Function using the modified-Health Assessment Questionnaire (m-HAQ). The mHAQ is the average score obtained on eight items addressed to the patient to assess loss of typical lifestyle activities. Scoring of items within each is from 0 (without any difficulty) to 3 (unable to do). The eight items are as follows: 1: dress yourself, 2: get in and out of bed, 3: lift a full glass to your mouth, 4: walk, 5: wash and dry entire body, 6: bend down and pick up clothing, 7: turn faucets on and off, and 8: get in and out of a car. In addition to these standards, the American College of Rheumatology measures, and a Physician's Assessment of Response to methotrexate scored on a 10 cm visual analogue scale (VAS) were also used. In this visual analogue scale, “0” is defined as a perfect response, while “10” is defined as no response. Based on these definitions, a physician's assessment of response to MTX below group median corresponds to a perception of response above group median. Clinical data were collected on case report forms at the time of the clinical visit, and the physician and each patient were blinded to all laboratory parameters throughout the entire study. Furthermore, using the VAS for the physician's assessment of disease activity and the physician's assessment of response to methotrexate, the highest 25th percentiles for disease activity or response to methotrexate were calculated. Chi-square analysis was applied, and odds ratios (OR) were calculated.
Genotyping was performed as follows: Whole blood (EDTA) was drawn the day of the clinical visit; genomic DNA was extracted using a Generation Purification Capture Column (Gentra Systems, Inc; Minneapolis, Minn.). The RFC-1 G80A polymorphism, which results in a […] substitution at codon 27 of RFC-1, was detected using the PCR RFLP method described in Chango et al., supra, 2000. The ATIC C347G polymorphism, which results in a threonine to serine substitution at position 116 of ATIC, was determined with a real time TaqMan allelic discrimination assay performed using fluorogenic 3′-minor groove binding probes. The forward primer sequence was 5′-[…]-3′ (SEQ ID NO:3), and the reverse primer sequence was 5′-[…]-3′ (SEQ ID NO:4). Allelic discrimination was performed using the wild-type fluorescent probe 5′-FAM-[…]-MGB 3′ (SEQ ID NO:5) and the mutant fluorescent probe 5′-VIC-[…]-MGB 3′ (SEQ ID NO:6). Final reaction conditions were as follows: 900 nM of each primer, 200 nM of each probe, 5 ng genomic DNA, and a 1×TaqMan master mix (Applied Biosystems; Foster City, Calif.). PCR reactions were incubated for one 2-minute cycle at 50° C., a 10-minute cycle at 95° C., and 40 cycles of 95° C. for 15 seconds, 58° C. for 15 seconds, and finally 60° C. for 45 seconds. Statistical analyses were performed using Statistica (StatSoft Inc., Tulsa, Okla.) essentially as follows. […]

[3] = Red blood cell MTXPG concentrations in 14 polyarthritis patients on low dose weekly methotrexate (HPLC-fluorometry)
Method: The liquid chromatograph was an Agilent 1100 HPLC chemstation system composed of a quaternary pump, a system controller, an autoinjector, a sample cooler kept at 4° C., and a fluorometer. […] Methotrexate polyglutamates were detected with post-column derivatization using a photochemical reactor unit (Aura Industries, New York, N.Y.) equipped with an elongated 254 nm low pressure mercury ultraviolet lamp and containing a 1/16″ outer diameter TEFLON™ tubing (internal diameter 0.25 mm) assembled as a knitted coil and connected on-line between the analytical column and fluorometer. […] Methotrexate polyglutamate photolytic products were measured at an excitation wavelength of 274 nm and an emission wavelength of 464 nm, unless otherwise indicated. The retention times described herein were measured from time of injection to time of detection at the post-reactor unit fluorometer.
HPLC separation was performed on a 25 cm×4.6 mm X Terra MS C18 column (Waters, Milford, Mass.), 5 μm particle size, protected by a guard column. […] Methotrexate polyglutamate photolytic products were analyzed at an excitation wavelength of 274 nm and an emission wavelength of 464 nm. […]
Results were expressed as nmol/L packed red blood cells, and patient results were expressed as an average plus or minus the standard error of the mean (±SEM). […]

[4] = multivariate regression with RFC-1, ATIC, TSER genotypes, adjusted for corticosteroids and folic acid
[5] = 108 patients on methotrexate, mean ± SEM
[6] = 108 patients on methotrexate, median (range)
[7] = multivariate linear regression adjusted for corticosteroids and folic acid

Median RBC long-chain MTXPGs concentration (MTXPG3) [1]: 40 nmol/L | RBC long-chain MTXPGs concentration (MTXPG3), range [1]: <5 to 131 nmol/L | Average share of total methotrexate polyglutamates ([3]; 14 patients, RBC): 55%
SMILES: CN(Cc1cnc2nc(N)nc(N)c2n1)c1ccc(C(=O)N[C@@H](CCC(=O)N[C@@H](CCC(=O)N[C@@H](CCC(=O)O)C(=O)O)C(=O)O)C(=O)O)cc1 [MTXPG3, 4-amino-10-methylpteroyltri-glutamic acid]
Logistic regression estimate for MTXPG3: probability of total number of tender and swollen joints below group median ([2]; FIG. 4A, model with MTXPG3 only, estimate ± standard error): 0.022±0.008 | Logistic regression estimate for MTXPG3: probability of physician assessment of Disease activity VAS below group median ([2]; FIG. 4B, model with MTXPG3 only): 0.024±0.009 | Logistic regression estimate for MTXPG3: probability of physician assessment of response to methotrexate VAS below group median ([2]; FIG. 4C, model with MTXPG3 only): 0.034±0.01 | Logistic regression estimate for MTXPG3: probability of mHAQ below group median ([2]; FIG. 4D, model with MTXPG3 only): 0.014±0.008 | Logistic regression estimate for MTXPG3: probability of total number of tender and swollen joints below group median ([2]; FIG. 5A, model with MTXPG3 and RFC-1 G80A genotype): 0.022±0.009 | Logistic regression estimate for MTXPG3: probability of physician assessment of Disease activity VAS below group median ([2]; FIG. 5B, model with MTXPG3 and RFC-1 G80A genotype): 0.024±0.009 | Logistic regression estimate for MTXPG3: probability of physician assessment of response to methotrexate VAS below group median ([2]; FIG. 5C, model with MTXPG3 and RFC-1 G80A genotype): 0.033±0.010 | Logistic regression estimate for MTXPG3: probability of mHAQ below group median ([2]; FIG. 5D, model with MTXPG3 and RFC-1 G80A genotype): 0.015±0.008 | Logistic regression estimate for MTXPG3: probability of total number of tender and swollen joints below group median ([2]; FIG. 6A, model with MTXPG3 and ATIC C347G genotype): 0.024±0.009 | Logistic regression estimate for MTXPG3: probability of physician assessment of Disease activity VAS below group median ([2]; FIG. 6B, model with MTXPG3 and ATIC C347G genotype): 0.025±0.009 | Logistic regression estimate for MTXPG3: probability of physician assessment of response to methotrexate VAS below group median ([2]; FIG. 6C, model with MTXPG3 and ATIC C347G genotype): 0.038±0.010 | Logistic regression estimate for MTXPG3: probability of mHAQ below group median ([2]; FIG. 6D, model with MTXPG3 and ATIC C347G genotype): 0.013±0.008 | Logistic regression estimate for MTXPG3: probability of total number of tender and swollen joints below group median ([2]; FIG. 7A, model with MTXPG3 and PGENi (RFC-1, ATIC)): 0.023±0.009 | Logistic regression estimate for MTXPG3: probability of physician assessment of Disease activity VAS below group median ([2]; FIG. 7B, model with MTXPG3 and PGENi (RFC-1, ATIC)): 0.025±0.009 | Logistic regression estimate for MTXPG3: probability of physician assessment of response to methotrexate VAS below group median ([2]; FIG. 7C, model with MTXPG3 and PGENi (RFC-1, ATIC)): 0.036±0.010 | Logistic regression estimate for MTXPG3: probability of mHAQ below group median ([2]; FIG. 7D, model with MTXPG3 and PGENi (RFC-1, ATIC)): 0.014±0.009 | MTXPG3 estimate, logistic regression: probability of physician's assessment of patient's response to MTX VAS≦2 cm ([2]; FIG. 12B): 0.035±0.01 | Estimate ± SEM of RBC MTXPG3 (nmol/L) for Modified Health assessment questionnaire [2, 4]: −0.002 ± 0.002 | Estimate ± SEM of RBC MTXPG3 (nmol/L) for Number of Swollen joints [2, 4]: −0.035 ± 0.019 | Estimate ± SEM of RBC MTXPG3 (nmol/L) for Number of Tender joints [2, 4]: −0.047 ± 0.23 | Estimate ± SEM of RBC MTXPG3 (nmol/L) for Patient's Global assessment of disease activity VAS [2, 4]: −0.004 ± 0.009 | Estimate ± SEM of RBC MTXPG3 (nmol/L) for Physician's Global assessment of disease activity VAS [2, 4]: −0.025 ± 0.008 | Estimate ± SEM of RBC MTXPG3 (nmol/L) for Physician's assessment of Patient's response to MTX VAS [2, 4]: −0.026 ± 0.007 | Fold more likely to have clinical responsiveness to the chemotherapy above average ([2]; patients with RBC MTXPG3 levels above 60 nmol/L): 12.7 fold

RBC concentration in a patient sample ([3]; one patient on 17.5 mg weekly methotrexate for at least 3 months): 27 nmol/L
SMILES: CN(Cc1cnc2nc(N)nc(N)c2n1)c1ccc(C(=O)N[C@@H](CCC(=O)O)C(=O)O)cc1 [Methotrexate, 4-amino-10-methylpteroylglutamic acid]
Modified Health assessment questionnaire [2, 5]: 0.55 ± 0.05 | Number of Swollen joints (maximum 22) [2, 5]: 4.0 ± 0.5 | Number of Tender joints (maximum 22) [2, 5]: 5.0 ± 0.6 | Patient assessment of disease activity VAS [2, 5]: 4.1 ± 0.2 | Physician assessment of disease activity VAS [2, 5]: 3.5 ± 0.2 | Modified Health Assessment Questionnaire (mHAQ score) [2, 6]: 0.375 (0-2) | Number of swollen and tender joints (total number) [2, 6]: 5.5 (0-44) | Physician assessment of disease activity (10 cm VAS score) [2, 6]: 2.9 (0.1-8.4) | Physician assessment of response to Methotrexate VAS ([2]; 108 patients, mean ± SEM): 2.7 ± 0.2 | Physician assessment of response to methotrexate (10 cm VAS score) ([2]; 108 patients, median (range), 0 perfect response, 10 no response): 2.1 (0.1-8.3) | Mean number of swollen joints ([2]; PGENi=0 (n=58 patients)): 5.5±0.8 | Modified health assessment questionnaire (mHAQ) score, mean ([2]; PGENi=0 (n=58 patients)): 0.68±0.07 | Physician's assessment of disease activity visual analog score (VAS), mean ([2]; PGENi=0 (n=58 patients)): 4.1±0.3 | Physician's assessment of response to MTX, mean ([2]; PGENi=0 (n=58 patients)): 3.0±0.2 | Mean number of tender joints ([2]; PGENi=0 (n=58 patients), PGENi from RFC-1, ATIC, TS homozygosity): 6.4±0.9 | Mean number of swollen joints ([2]; PGENi=1 to 3 (n=50 patients)): 2.3±0.4 | Mean number of tender joints ([2]; PGENi=1 to 3 (n=50 patients)): 3.3±0.9 | Modified health assessment questionnaire (mHAQ) score, mean ([2]; PGENi=1 to 3 (n=50 patients)): 0.39±0.06 | Physician's assessment of disease activity visual analog score (VAS), mean ([2]; PGENi=1 to 3 (n=50 patients)): 2.6±0.3 | Physician's assessment of response to MTX, mean ([2]; PGENi=1 to 3 (n=50 patients)): 2.3±0.3 | Estimate ± SEM of methotrexate dose (mg/week) for Modified Health assessment questionnaire [2, 7]: −0.017 ± 0.009; p = 0.09 | Estimate ± SEM of methotrexate dose (mg/week) for Number of Tender joints [2, 7]: −0.17 ± 0.12; p = 0.15 | Estimate ± SEM of methotrexate dose (mg/week) for Physician assessment of disease activity VAS [2, 7]: −0.088 ± 0.044; p = 0.06 | Fold more likely to have a good response to methotrexate therapy ([2]; patients with a PGENi between 1-3 (sum of homozygous variant genotypes)): 3.7 fold | Fold more likely to have Physician's Assessment of Patient's Response to Methotrexate VAS≦2 cm (good response) ([2]; pharmacogenetic index above 2 (index 0 to 5, variant alleles counted)): 4.7 fold
